Measured values as given in the supplement of paper PMC10307832.

Legend:
Test in all cases: relative viability (nuclei count vs DMSO), 5 days (fraction); higher = more cells survive
[1] = test system: BEN
In short: (§1)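 Dosing by pin tool came one day after lung cancer cell lines were seeded in 1536-well plates, using either one drug or a fixed anchor-drug dose plus five library-drug doses (not always all listed) in √10 steps. After 5 days, nuclei were counted on 4× images. Relative viability is treated-well nuclei count divided by vehicle-well nuclei count, and values are medians of duplicate plates.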

[2] = test system: CAL-12T
In short: as §1

[3] = test system: EKVX
In short: as §1

[4] = test system: HCC-15
In short: as §1

[5] = test system: HCC-366
In short: as §1

[6] = test system: HCC-44
In short: as §1

[7] = test system: LCLC-103H
In short: as §1

[8] = test system: LOU-NH91
In short: as §1

[9] = test system: NCI-H1355
In short: as §1

[10] = test system: NCI-H1395
In short: as §1

[11] = test system: NCI-H1437
In short: as §1

[12] = test system: NCI-H1563
In short: as §1

[13] = test system: NCI-H1650
In short: as §1

[14] = test system: NCI-H1651
In short: as §1

[15] = test system: NCI-H1734
In short: as §1

[16] = test system: NCI-H1755
In short: as §1

[17] = test system: NCI-H1975
In short: as §1

[18] = test system: NCI-H2023
In short: as §1

[19] = test system: NCI-H2085
In short: as §1

[20] = test system: NCI-H2342
In short: as §1

[21] = test system: NCI-H358
In short: as §1

[22] = test system: NCI-H441
In short: as §1

[23] = test system: NCI-H460
In short: as §1

[24] = test system: NCI-H838
In short: as §1

## C[C@@H]1CN(CC(=O)Nc2ccc3c(c2)Cc2cccc(-c4cc(=O)cc(N5CCOCC5)o4)c2S3)C[C@H](C)O1 + COc1cccc2cc(-c3nc([C@H]4CC[C@H](C(=O)O)CC4)n4ncnc(N)c34)[nH]c12 [OSI-027] (partner 0.5 µM)
[1]; first compound 0.04 µM
  relative viability: 0.288
[1]; first compound 0.1265 µM
  relative viability: 0.28
[1]; first compound 0.4 µM
  relative viability: 0.305
[1]; first compound 4 µM
  relative viability: 0.296
[2]; first compound 0.04 µM
  relative viability: 0.734
[2]; first compound 0.1265 µM
  relative viability: 0.675
[2]; first compound 0.4 µM
  relative viability: 0.561
[2]; first compound 4 µM
  relative viability: 0.237
[3]; first compound 0.04 µM
  relative viability: 0.713
[3]; first compound 0.1265 µM
  relative viability: 0.676
[3]; first compound 0.4 µM
  relative viability: 0.712
[3]; first compound 4 µM
  relative viability: 0.618
[4]; first compound 0.04 µM
  relative viability: 0.76
[4]; first compound 0.1265 µM
  relative viability: 0.606
[4]; first compound 0.4 µM
  relative viability: 0.485
[4]; first compound 4 µM
  relative viability: 0.524
[5]; first compound 0.04 µM
  relative viability: 1.04
[5]; first compound 0.1265 µM
  relative viability: 0.867
[5]; first compound 0.4 µM
  relative viability: 0.648
[5]; first compound 4 µM
  relative viability: 0.502
[6]; first compound 0.04 µM
  relative viability: 0.328
[6]; first compound 0.1265 µM
  relative viability: 0.707
[6]; first compound 0.4 µM
  relative viability: 0.335
[6]; first compound 4 µM
  relative viability: 0.305
[7]; first compound 0.04 µM
  relative viability: 0.405
[7]; first compound 0.1265 µM
  relative viability: 0.379
[7]; first compound 0.4 µM
  relative viability: 0.387
[7]; first compound 4 µM
  relative viability: 0.476
[8]; first compound 0.04 µM
  relative viability: 0.746
[8]; first compound 0.1265 µM
  relative viability: 0.711
[8]; first compound 0.4 µM
  relative viability: 0.724
[8]; first compound 4 µM
  relative viability: 0.7
[9]; first compound 0.04 µM
  relative viability: 0.447
[9]; first compound 0.1265 µM
  relative viability: 0.472
[9]; first compound 0.4 µM
  relative viability: 0.321
[9]; first compound 4 µM
  relative viability: 0.335
[10]; first compound 0.04 µM
  relative viability: 0.782
[10]; first compound 0.1265 µM
  relative viability: 0.655
[10]; first compound 0.4 µM
  relative viability: 0.539
[10]; first compound 4 µM
  relative viability: 0.612
[11]; first compound 0.04 µM
  relative viability: 0.918
[11]; first compound 0.1265 µM
  relative viability: 0.881
[11]; first compound 0.4 µM
  relative viability: 0.864
[11]; first compound 4 µM
  relative viability: 0.747
[12]; first compound 0.04 µM
  relative viability: 0.765
[12]; first compound 0.1265 µM
  relative viability: 0.71
[12]; first compound 0.4 µM
  relative viability: 0.689
[12]; first compound 4 µM
  relative viability: 0.72
[13]; first compound 0.04 µM
  relative viability: 0.761
[13]; first compound 0.1265 µM
  relative viability: 0.662
[13]; first compound 0.4 µM
  relative viability: 0.591
[13]; first compound 4 µM
  relative viability: 0.449
[14]; first compound 0.04 µM
  relative viability: 0.694
[14]; first compound 0.1265 µM
  relative viability: 0.836
[14]; first compound 0.4 µM
  relative viability: 0.741
[14]; first compound 4 µM
  relative viability: 0.585
[15]; first compound 0.04 µM
  relative viability: 0.655
[15]; first compound 0.1265 µM
  relative viability: 0.598
[15]; first compound 0.4 µM
  relative viability: 0.48
[15]; first compound 4 µM
  relative viability: 0.67
[16]; first compound 0.04 µM
  relative viability: 0.697
[16]; first compound 0.1265 µM
  relative viability: 0.651
[16]; first compound 0.4 µM
  relative viability: 0.668
[16]; first compound 4 µM
  relative viability: 0.578
[17]; first compound 0.04 µM
  relative viability: 0.74
[17]; first compound 0.1265 µM
  relative viability: 0.602
[17]; first compound 0.4 µM
  relative viability: 0.608
[17]; first compound 4 µM
  relative viability: 0.448
[18]; first compound 0.04 µM
  relative viability: 0.518
[18]; first compound 0.1265 µM
  relative viability: 0.387
[18]; first compound 0.4 µM
  relative viability: 0.306
[18]; first compound 4 µM
  relative viability: 0.197
[19]; first compound 0.04 µM
  relative viability: 0.97
[19]; first compound 0.1265 µM
  relative viability: 0.611
[19]; first compound 0.4 µM
  relative viability: 0.476
[19]; first compound 4 µM
  relative viability: 0.477
[20]; first compound 0.04 µM
  relative viability: 0.647
[20]; first compound 0.1265 µM
  relative viability: 0.506
[20]; first compound 0.4 µM
  relative viability: 0.52
[20]; first compound 4 µM
  relative viability: 0.58
[21]; first compound 0.04 µM
  relative viability: 0.679
[21]; first compound 0.1265 µM
  relative viability: 0.673
[21]; first compound 0.4 µM
  relative viability: 0.852
[21]; first compound 4 µM
  relative viability: 0.418
[22]; first compound 0.04 µM
  relative viability: 0.74
[22]; first compound 0.1265 µM
  relative viability: 0.791
[22]; first compound 0.4 µM
  relative viability: 0.398
[22]; first compound 4 µM
  relative viability: 0.438
[23]; first compound 0.04 µM
  relative viability: 0.662
[23]; first compound 0.1265 µM
  relative viability: 0.674
[23]; first compound 0.4 µM
  relative viability: 0.587
[23]; first compound 4 µM
  relative viability: 0.253
[24]; first compound 0.04 µM
  relative viability: 0.401
[24]; first compound 0.1265 µM
  relative viability: 0.377
[24]; first compound 0.4 µM
  relative viability: 0.312
[24]; first compound 4 µM
  relative viability: 0.288
